Reference: the supplement of paper PMC10331698
± gives the standard deviation of the averaged measurements.

Assays:
Test in all cases: level (log10 ratio to DMSO vehicle control); higher = higher biomarker level / cell amount than vehicle control
Conditions in all cases: in DMSO
[1] = compound: O=S(=O)(O)C(F)(F)C(F)(F)C(F)(F)C(F)(F)C(F)(F)C(F)(F)F [Perfluorohexanesulfonic acid]
Method: (§1)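 BioMAP Diversity Plus panel of 12 human primary cell co-culture systems (3C, 4H, LPS, SAg, BT, BF4T, BE3C, CASM3C, HDF3CGF, KF3CT, MyoF, Mphg). Compounds were added 1 h before stimulation and left for 24 h (MyoF 48 h; BT 72 h for soluble read-outs or 6 d for IgG). Biomarkers were read by ELISA, cytotoxicity by SRB, PBMC viability and proliferation by Alamar Blue. Each well value was divided by the mean of 8 DMSO control wells on the same plate and log10 transformed; duplicate blinded samples were tested at 4 concentrations.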

[2] = compound: FC(F)(F)C(F)(F)C(F)(F)C(F)(F)C(F)(F)C(F)(F)C(F)(F)C(F)(F)CCS [2-(Perfluorooctyl)ethanthiol]
Method: as §1

Perfluorodecanoic acid = compound: O=C(O)C(F)(F)C(F)(F)C(F)(F)C(F)(F)C(F)(F)C(F)(F)C(F)(F)C(F)(F)C(F)(F)F [Perfluorodecanoic acid]
Method: as §1

Perfluoroheptanoic acid = compound: O=C(O)C(F)(F)C(F)(F)C(F)(F)C(F)(F)C(F)(F)C(F)(F)F [Perfluoroheptanoic acid]
Method: as §1

[3] = compound: O=C(O)C(F)(F)C(F)(F)C(F)F [4H-Perfluorobutanoic acid]
Method: as §1

Pentafluoropropionamide = compound: NC(=O)C(F)(F)C(F)(F)F [Pentafluoropropionamide]
Method: as §1

Perfluoropropanoic acid = compound: O=C(O)C(F)(F)C(F)(F)F [Perfluoropropanoic acid]
Method: as §1

Row | Test System | level (log10) ([1]; 6700 nM) | level (log10) ([1]; 20000 nM) | level (log10) ([1]; 60000 nM) | level (log10) ([2]; 6700 nM) | level (log10) ([2]; 20000 nM) | level (log10) (Perfluorodecanoic acid; 6700 nM) | level (log10) (Perfluorodecanoic acid; 20000 nM) | level (log10) (Perfluoroheptanoic acid; 6700 nM) | level (log10) (Perfluoroheptanoic acid; 20000 nM) | level (log10) (Perfluoroheptanoic acid; 60000 nM) | level (log10) ([3]; 6700 nM) | level (log10) ([3]; 20000 nM) | level (log10) ([3]; 60000 nM) | level (log10) (Pentafluoropropionamide; 6700 nM) | level (log10) (Pentafluoropropionamide; 20000 nM) | level (log10) (Pentafluoropropionamide; 60000 nM) | level (log10) (Perfluoropropanoic acid; 6700 nM) | level (log10) (Perfluoropropanoic acid; 20000 nM) | level (log10) (Perfluoropropanoic acid; 60000 nM)
1 | LPS:CD62E/E-Selectin | -0.0035 ± 0.023 | 0.0025 ± 0.0064 | 0.008 ± 0.035 | 0.0275 ± 0.025 | 0.013 ± 0.011 | -0.0115 ± 0.00071 | -0.0205 ± 0.015 | -0.009 ± 0.0028 | 0 ± 0.017 | 0.01 | -0.006 ± 0.013 | 0.002 ± 0.0028 | 0.0075 ± 0.011 | -0.0265 ± 0.025 | -0.0185 ± 0.028 | -0.004 ± 0.0071 | -0.007 ± 0.0014 | -0.0195 ± 0.023 | -0.0025 ± 0.0078
2 | 3C:Proliferation | -0.042 ± 0.034 | -0.0525 ± 0.054 | -0.0305 ± 0.022 | 0.0355 ± 0.029 | -0.016 ± 0.013 | 0.0395 ± 0.032 | 0.0005 ± 0.044 | -0.0365 ± 0.028 | 0.0245 ± 0.057 | -0.109 ± 0.057 | -0.023 ± 0.02 | -0.03 ± 0.041 | 0.013 ± 0.065 | -0.0095 ± 0.05 | -0.0165 ± 0.0064 | -0.0115 ± 0.029 | 0.019 ± 0.016 | 0.024 ± 0.073 | -0.051 ± 0.083
3 | LPS:CXCL8/IL-8 | -0.0005 ± 0.0021 | 0.0025 ± 0.0078 | 0.0675 ± 0.047 | -0.0195 ± 0.035 | 0.0235 ± 0.053 | 0.027 ± 0.0071 | 0.0115 ± 0.0064 | 0.0085 ± 0.033 | 0.027 ± 0.03 | 0.105 ± 0.059 | -0.0155 ± 0.019 | -0.008 ± 0.02 | 0.018 ± 0.024 | -0.009 ± 0.013 | -0.0115 ± 0.00071 | 0.0285 ± 0.037 | -0.013 ± 0.02 | -0.001 ± 0.0085 | -0.002 ± 0.0071
4 | LPS:CD40 | 0.004 ± 0.018 | 0.011 ± 0.023 | -0.0045 ± 0.054 | -0.034 ± 0.055 | -0.0305 ± 0.11 | -0.015 ± 0.16 | -0.0235 ± 0.12 | -0.0135 ± 0.043 | 0.0055 ± 0.00071 | -0.0515 ± 0.079 | -0.0365 ± 0.022 | -0.0355 ± 0.021 | 0.015 ± 0.031 | -0.0315 ± 0.047 | -0.04 ± 0.013 | -0.025 ± 0.02 | 0.0105 ± 0.043 | -0.0235 ± 0.0035 | 0.011 ± 0.023
5 | BT:PBMC Cytotoxicity | 0.0015 ± 0.016 | 0.0325 ± 0.0035 | 0.061 ± 0.0057 | -0.0395 ± 0.012 | 0.02 ± 0.0028 | 0.0195 ± 0.023 | 0.045 ± 0.045 | -0.0175 ± 0.0064 | 0.001 ± 0.0057 | 0.063 ± 0.0014 | -0.0175 ± 0.018 | -0.0075 ± 0.0035 | -0.002 ± 0.047 | 0.0065 ± 0.042 | 0.013 ± 0.034 | -0.02 ± 0.0014 | -0.0215 ± 0.056 | -0.013 ± 0.027 | -0.005 ± 0.0085
6 | BT:sTNF-alpha | 0.024 ± 0.13 | -0.011 ± 0.034 | -0.0495 ± 0.044 | 0.16 ± 0.015 | 0.065 ± 0.035 | 0.0625 ± 0.047 | 0.018 ± 0.0099 | -0.0045 ± 0.11 | -0.0405 ± 0.05 | -0.064 ± 0.17 | -0.0585 ± 0.022 | -0.055 ± 0.0071 | -0.048 ± 0.13 | 0.0135 ± 0.0078 | 0.0225 ± 0.081 | -0.0025 ± 0.0092 | 0.0405 ± 0.06 | 0.058 ± 0.096 | -0.0255 ± 0.11
7 | 4H:SRB | -0.0245 ± 0.015 | -0.025 ± 0.017 | -0.045 ± 0.023 | 0.0085 ± 0.011 | -0.003 ± 0.0057 | 0.003 ± 0.0099 | -0.0055 ± 0.00071 | -0.0035 ± 0.005 | 0.0135 ± 0.026 | -0.024 ± 0.021 | -0.0085 ± 0.0092 | -0.003 ± 0.0071 | 0.0055 ± 0.0035 | -0.0055 ± 0.021 | -0.0095 ± 0.0078 | -0.0135 ± 0.016 | 0 ± 0.0028 | -0.002 ± 0.0071 | 0.0095 ± 0.0092
8 | 3C:CXCL9/MIG | 0.0015 ± 0.0035 | 0.0035 ± 0.0092 | 0.007 ± 0.0085 | 0.002 | 0.0115 ± 0.005 | 0.002 | 0.0005 ± 0.0064 | 0.0115 ± 0.0035 | -0.01 ± 0.0071 | 0.0135 ± 0.0078 | 0.005 ± 0.0042 | 0.0035 ± 0.013 | 0.012 ± 0.0014 | -0.0025 ± 0.0078 | -0.011 ± 0.0071 | 0.0085 ± 0.012 | -0.0005 ± 0.012 | 0.0025 ± 0.0064 | 0.0075 ± 0.019
9 | BE3C:CXCL11/I-TAC | -0.004 ± 0.016 | 0.004 ± 0.011 | 0.0035 ± 0.016 | 0.0035 ± 0.037 | 0.0175 ± 0.035 | -0.0405 ± 0.021 | -0.849 ± 0.028 | 0.0065 ± 0.015 | -0.011 ± 0.0042 | -0.003 ± 0.0042 | -0.0015 ± 0.0064 | 0.008 ± 0.014 | 0.031 ± 0.011 | -0.0065 ± 0.0092 | -0.0055 ± 0.018 | -0.006 ± 0.0071 | 0.007 ± 0.0071 | 0.013 ± 0.014 | 0.029 ± 0.033
10 | LPS:CD106/VCAM-1 | -0.016 ± 0.017 | -0.0155 ± 0.015 | 0.005 ± 0.016 | -0.007 ± 0.04 | -0.0225 ± 0.005 | 0.0015 ± 0.0035 | -0.001 ± 0.0014 | -0.014 ± 0.021 | -0.0155 ± 0.025 | -0.013 ± 0.025 | -0.018 ± 0.0071 | -0.0245 ± 0.011 | -0.002 ± 0.025 | -0.041 ± 0.0014 | -0.021 ± 0.0099 | -0.0135 ± 0.018 | -0.0105 ± 0.018 | -0.008 ± 0.02 | -0.0055 ± 0.022
11 | BF4T:SRB | -0.01 ± 0.0085 | -0.0115 ± 0.0078 | -0.0005 ± 0.0021 | -0.01 ± 0.013 | -0.016 ± 0.0014 | -0.001 ± 0.0071 | -0.256 ± 0.0014 | -0.0085 ± 0.00071 | -0.0115 ± 0.00071 | -0.0035 ± 0.018 | 0.0005 ± 0.0021 | -0.008 ± 0.0057 | -0.006 ± 0.0042 | -0.0035 ± 0.00071 | -0.007 ± 0.0071 | -0.004 ± 0.0042 | -0.002 ± 0.0028 | -0.0025 ± 0.0064 | -0.0055 ± 0.0064
12 | 4H:CCL26/Eotaxin-3 | -0.0105 ± 0.00071 | -0.001 ± 0.02 | -0.047 ± 0.018 | 0.008 ± 0.017 | -0.0145 ± 0.0064 | -0.0085 ± 0.011 | -0.0305 ± 0.011 | 0.0055 ± 0.0064 | 0.0045 ± 0.0092 | -0.015 ± 0.0085 | -0.0165 ± 0.012 | -0.008 ± 0.011 | 0.008 ± 0.0085 | -0.001 ± 0.013 | -0.0015 ± 0.013 | 0.0065 ± 0.026 | -0.0115 ± 0.0092 | -0.0045 ± 0.012 | -0.015 ± 0.017
13 | BF4T:CD106/VCAM-1 | -0.022 ± 0.024 | -0.019 ± 0.0014 | -0.0155 ± 0.033 | -0.003 ± 0.051 | -0.0605 ± 0.0078 | -0.026 ± 0.0085 | -0.311 ± 0.0042 | -0.0015 ± 0.029 | 0.0115 ± 0.015 | 0.029 ± 0.0099 | 0.0145 ± 0.033 | -0.0365 ± 0.054 | 0.028 ± 0.078 | -0.001 ± 0.018 | -0.0045 ± 0.0021 | -0.016 ± 0.0071 | -0.021 ± 0.065 | 0.003 ± 0.072 | 0.026 ± 0.095
14 | 4H:CD106/VCAM-1 | -0.013 ± 0.0042 | -0.023 ± 0.0042 | -0.012 ± 0.014 | -0.0055 ± 0.005 | -0.0025 ± 0.012 | 0.0165 ± 0.0092 | 0.0185 ± 0.029 | 0.0215 ± 0.035 | 0.0045 ± 0.049 | 0.007 ± 0.017 | -0.003 ± 0.014 | -0.0165 ± 0.011 | 0.0065 ± 0.011 | -0.02 | -0.011 ± 0.03 | 0.0015 ± 0.0092 | -0.0085 ± 0.011 | -0.0075 ± 0.00071 | 0 ± 0.014
15 | BE3C:CD87/uPAR | 0.0285 ± 0.00071 | 0.0015 ± 0.0035 | 0.035 ± 0.025 | 0.009 ± 0.014 | 0.027 ± 0.0042 | 0.05 ± 0.016 | -0.554 ± 0.011 | -0.0275 ± 0.026 | -0.049 ± 0.033 | -0.05 ± 0.054 | -0.003 ± 0.013 | -0.0175 ± 0.019 | 0.0015 ± 0.005 | 0.0115 ± 0.042 | -0.025 ± 0.0057 | -0.0145 ± 0.022 | -0.018 ± 0.0085 | -0.026 ± 0.0085 | 0.01 ± 0.0014
16 | BF4T:MMP-9 | 0.006 ± 0.065 | 0.0115 ± 0.073 | 0.0135 ± 0.056 | -0.047 ± 0.0099 | -0.057 ± 0.013 | -0.025 ± 0.0057 | -0.282 ± 0.023 | 0.0145 ± 0.016 | 0.0445 ± 0.022 | 0.103 ± 0.054 | -0.018 ± 0.028 | -0.0245 ± 0.036 | -0.008 ± 0.038 | 0.02 ± 0.024 | -0.001 ± 0.021 | 0.027 ± 0.0042 | -0.0065 ± 0.036 | -0.0065 ± 0.037 | 0.0035 ± 0.032
